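The compound was tested at five concentrations on cells cultured in 96-well plates, with a 48-hour exposure period. At the GI50, growth is halved. TGI marks complete inhibition of growth.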
Tests used:
Experiment in all cases: NCI anticancer screen, dose series, 48 h
786-0 renal = system: 786-0 renal
A498 renal = system: A498 renal
A549 NSCLC = system: A549 NSCLC
BT-549 breast = system: BT-549 breast
CAKI-1 renal = system: CAKI-1 renal
CCRF-CEM leukemia = system: CCRF-CEM leukemia
COLO 205 colon = system: COLO 205 colon
DU-145 prostate = system: DU-145 prostate
HCC-2998 colon = system: HCC-2998 colon
HCT-116 colon = system: HCT-116 colon
HCT-15 colon = system: HCT-15 colon
HL-60(TB) leukemia = system: HL-60(TB) leukemia
HOP-62 NSCLC = system: HOP-62 NSCLC
HOP-92 NSCLC = system: HOP-92 NSCLC
HS 578T breast = system: HS 578T breast
HT29 colon = system: HT29 colon
IGROV1 ovarian = system: IGROV1 ovarian
K-562 leukemia = system: K-562 leukemia
KM12 colon = system: KM12 colon
LOX IMVI melanoma = system: LOX IMVI melanoma
M14 melanoma = system: M14 melanoma
MALME-3M melanoma = system: MALME-3M melanoma
MCF7 breast = system: MCF7 breast
MDA-MB-231 breast = system: MDA-MB-231 breast
MDA-MB-435 = system: MDA-MB-435
MOLT-4 leukemia = system: MOLT-4 leukemia
NCI-H226 lung = system: NCI-H226 lung
NCI-H23 lung = system: NCI-H23 lung
NCI-H460 lung = system: NCI-H460 lung
NCI-H522 lung = system: NCI-H522 lung
NCI/ADR-RES ovarian = system: NCI/ADR-RES ovarian
OVCAR-3 ovarian = system: OVCAR-3 ovarian
OVCAR-4 ovarian = system: OVCAR-4 ovarian
OVCAR-8 ovarian = system: OVCAR-8 ovarian
PC-3 prostate = system: PC-3 prostate
RPMI-8226 leukemia = system: RPMI-8226 leukemia
RXF 393 renal = system: RXF 393 renal
SF-268 CNS = system: SF-268 CNS
SF-295 CNS = system: SF-295 CNS
SK-MEL-5 melanoma = system: SK-MEL-5 melanoma
SK-OV-3 ovarian = system: SK-OV-3 ovarian
SN12C renal = system: SN12C renal
SNB-19 CNS = system: SNB-19 CNS
SNB-75 CNS = system: SNB-75 CNS
SR leukemia = system: SR leukemia
SW-620 colon = system: SW-620 colon
T-47D breast = system: T-47D breast
TK-10 renal = system: TK-10 renal
U251 CNS = system: U251 CNS
UACC-257 melanoma = system: UACC-257 melanoma
UACC-62 melanoma = system: UACC-62 melanoma
UO-31 renal = system: UO-31 renal
ACHN renal = system: ACHN renal
EKVX NSCLC = system: EKVX NSCLC
OVCAR-5 ovarian = system: OVCAR-5 ovarian
SK-MEL-2 melanoma = system: SK-MEL-2 melanoma

For `CCN(CC)CCCC(C)N=C(C1=C(C(=NC(C)CCCN(CC)CC)c2cccc(OC)c2)C(=O)NC1=O)c1cccc(OC)c1` (stereo not drawn), the GI50 (786-0 renal) was 1.8 µM, the TGI (786-0 renal) was 7.86 µM and the GI50 (A498 renal) was 1.85 µM. The TGI (A498 renal) was 8.38 µM, the GI50 (A549 NSCLC) was 0.966 µM and the TGI (A549 NSCLC) was 2.08 µM. The GI50 (BT-549 breast) was 2.24 µM, the TGI (BT-549 breast) was 8.44 µM and the GI50 (CAKI-1 renal) was 1.66 µM. It also gave a TGI (CAKI-1 renal) of 8.62 µM, a GI50 (CCRF-CEM leukemia) of 1.49 µM and a TGI (CCRF-CEM leukemia) of 7.47 µM. The GI50 (COLO 205 colon) was 0.772 µM, the TGI (COLO 205 colon) was 1.56 µM and the GI50 (DU-145 prostate) was 1.54 µM. For the same compound, the TGI (DU-145 prostate) was 5.03 µM, the GI50 (HCC-2998 colon) was 1.05 µM and the TGI (HCC-2998 colon) was 2.2 µM. The GI50 (HCT-116 colon) was 0.747 µM, the TGI (HCT-116 colon) was 1.89 µM and the GI50 (HCT-15 colon) was 1.47 µM. For the same compound, the TGI (HCT-15 colon) was 5.53 µM, the GI50 (HL-60(TB) leukemia) was 3.66 µM and the TGI (HL-60(TB) leukemia) was 11.7 µM. For the same compound, the GI50 (HOP-62 NSCLC) was 0.825 µM, the TGI (HOP-62 NSCLC) was 2.34 µM and the GI50 (HOP-92 NSCLC) was 0.993 µM. It also gave a TGI (HOP-92 NSCLC) of 3.63 µM, a GI50 (HS 578T breast) of 4.24 µM and a TGI (HS 578T breast) of 14.5 µM. The GI50 (HT29 colon) was 0.631 µM, the TGI (HT29 colon) was 1.79 µM and the GI50 (IGROV1 ovarian) was 3.67 µM. The TGI (IGROV1 ovarian) was 20.6 µM, the GI50 (K-562 leukemia) was 1.34 µM and the TGI (K-562 leukemia) was 4.2 µM. For the same compound, the GI50 (KM12 colon) was 1.81 µM, the TGI (KM12 colon) was 6.36 µM and the GI50 (LOX IMVI melanoma) was 0.992 µM. The TGI (LOX IMVI melanoma) was 2.06 µM, the GI50 (M14 melanoma) was 0.89 µM and the TGI (M14 melanoma) was 1.68 µM. The GI50 (MALME-3M melanoma) was 1.11 µM, the TGI (MALME-3M melanoma) was 2.07 µM and the GI50 (MCF7 breast) was 1.25 µM. It also gave a TGI (MCF7 breast) of 3.51 µM, a GI50 (MDA-MB-231 breast) of 1.17 µM and a TGI (MDA-MB-231 breast) of 3.78 µM. For the same compound, the GI50 (MDA-MB-435) was 0.871 µM, the TGI (MDA-MB-435) was 1.68 µM and the GI50 (MOLT-4 leukemia) was 1.33 µM. The TGI (MOLT-4 leukemia) was 4.24 µM, the GI50 (NCI-H226 lung) was 2.83 µM and the TGI (NCI-H226 lung) was 13.6 µM. It also gave a GI50 (NCI-H23 lung) of 2.52 µM, a TGI (NCI-H23 lung) of 9.11 µM and a GI50 (NCI-H460 lung) of 0.841 µM. For the same compound, the TGI (NCI-H460 lung) was 2.13 µM, the GI50 (NCI-H522 lung) was 0.989 µM and the TGI (NCI-H522 lung) was 2.03 µM. For the same compound, the GI50 (NCI/ADR-RES ovarian) was 2.84 µM, the TGI (NCI/ADR-RES ovarian) was 12.2 µM and the GI50 (OVCAR-3 ovarian) was 1.45 µM. It also gave a TGI (OVCAR-3 ovarian) of 4.11 µM, a GI50 (OVCAR-4 ovarian) of 1.18 µM and a TGI (OVCAR-4 ovarian) of 3.49 µM. For the same compound, the GI50 (OVCAR-8 ovarian) was 1.18 µM, the TGI (OVCAR-8 ovarian) was 6.9 µM and the GI50 (PC-3 prostate) was 1.47 µM. It also gave a TGI (PC-3 prostate) of 5.12 µM, a GI50 (RPMI-8226 leukemia) of 1.23 µM and a TGI (RPMI-8226 leukemia) of 3.26 µM. It also gave a GI50 (RXF 393 renal) of 1.11 µM, a TGI (RXF 393 renal) of 4.15 µM and a GI50 (SF-268 CNS) of 1.97 µM. For the same compound, the TGI (SF-268 CNS) was 8.29 µM, the GI50 (SF-295 CNS) was 1.47 µM and the TGI (SF-295 CNS) was 5.94 µM. The GI50 (SK-MEL-5 melanoma) was 0.888 µM, the TGI (SK-MEL-5 melanoma) was 1.66 µM and the GI50 (SK-OV-3 ovarian) was 2.98 µM. For the same compound, the TGI (SK-OV-3 ovarian) was 13.1 µM, the GI50 (SN12C renal) was 2.38 µM and the TGI (SN12C renal) was 14.3 µM. It also gave a GI50 (SNB-19 CNS) of 3.71 µM, a TGI (SNB-19 CNS) of 16.4 µM and a GI50 (SNB-75 CNS) of 1.65 µM. It also gave a TGI (SNB-75 CNS) of 6.81 µM, a GI50 (SR leukemia) of 1.36 µM and a TGI (SR leukemia) of 4.31 µM. It also gave a GI50 (SW-620 colon) of 0.71 µM, a TGI (SW-620 colon) of 2.38 µM and a GI50 (T-47D breast) of 2.02 µM. For the same compound, the TGI (T-47D breast) was 10.4 µM, the GI50 (TK-10 renal) was 1.26 µM and the TGI (TK-10 renal) was 3.44 µM. The GI50 (U251 CNS) was 1.06 µM, the TGI (U251 CNS) was 2.5 µM and the GI50 (UACC-257 melanoma) was 0.952 µM. It also gave a TGI (UACC-257 melanoma) of 1.75 µM, a GI50 (UACC-62 melanoma) of 7.71 µM and a TGI (UACC-62 melanoma) of 15 µM. It also gave a GI50 (UO-31 renal) of 1.39 µM and a TGI (UO-31 renal) of 4.27 µM.
`FC1C2=C(SC1(F)F)C1CCC2C1` (stereo not drawn) gave a TGI (786-0 renal) greater than 100 µM, a TGI (A549 NSCLC) greater than 100 µM and a TGI (ACHN renal) greater than 100 µM. For the same compound, the TGI (BT-549 breast) was greater than 100 µM, the TGI (CAKI-1 renal) was greater than 100 µM and the TGI (COLO 205 colon) was greater than 100 µM. It also gave a TGI (DU-145 prostate) greater than 100 µM, a TGI (EKVX NSCLC) greater than 100 µM and a TGI (HCT-116 colon) greater than 100 µM. For the same compound, the TGI (HCT-15 colon) was greater than 100 µM, the TGI (HL-60(TB) leukemia) was greater than 100 µM and the TGI (HOP-92 NSCLC) was greater than 100 µM. The TGI (HS 578T breast) was greater than 100 µM, the TGI (HT29 colon) was greater than 100 µM and the TGI (IGROV1 ovarian) was greater than 100 µM. It also gave a TGI (K-562 leukemia) greater than 100 µM, a TGI (KM12 colon) greater than 100 µM and a TGI (LOX IMVI melanoma) greater than 100 µM. For the same compound, the TGI (M14 melanoma) was greater than 100 µM, the TGI (MALME-3M melanoma) was greater than 100 µM and the TGI (MCF7 breast) was greater than 100 µM. For the same compound, the TGI (MDA-MB-231 breast) was greater than 100 µM, the TGI (MDA-MB-435) was greater than 100 µM and the TGI (MOLT-4 leukemia) was greater than 100 µM. For the same compound, the TGI (NCI-H226 lung) was greater than 100 µM, the TGI (NCI-H23 lung) was greater than 100 µM and the TGI (NCI-H460 lung) was greater than 100 µM. It also gave a TGI (NCI-H522 lung) greater than 100 µM, a TGI (NCI/ADR-RES ovarian) greater than 100 µM and a TGI (OVCAR-3 ovarian) greater than 100 µM. The TGI (OVCAR-4 ovarian) was greater than 100 µM, the TGI (OVCAR-5 ovarian) was greater than 100 µM and the TGI (OVCAR-8 ovarian) was greater than 100 µM. The TGI (PC-3 prostate) was greater than 100 µM, the TGI (RPMI-8226 leukemia) was greater than 100 µM and the TGI (RXF 393 renal) was greater than 100 µM. The TGI (SF-295 CNS) was greater than 100 µM, the TGI (SK-MEL-2 melanoma) was greater than 100 µM and the TGI (SK-MEL-5 melanoma) was greater than 100 µM. It also gave a TGI (SK-OV-3 ovarian) greater than 100 µM, a TGI (SNB-19 CNS) greater than 100 µM and a TGI (SNB-75 CNS) greater than 100 µM. The TGI (SR leukemia) was greater than 100 µM, the TGI (SW-620 colon) was greater than 100 µM and the TGI (T-47D breast) was greater than 100 µM. For the same compound, the TGI (TK-10 renal) was greater than 100 µM, the TGI (UACC-257 melanoma) was greater than 100 µM and the TGI (UACC-62 melanoma) was greater than 100 µM. The TGI (UO-31 renal) was greater than 100 µM.
